Test results from publication PMC9000710, “Synthesis and Hemostatic Activity of New Amide Derivatives” (Molecules, 2022).
Counter-ions that a name gives are not always drawn.

What was measured:
human blood plasma [1] = assay: Activated partial thromboplastin time (aPTT) clotting assay; type: biochemical
Protocol: (§1) Human blood plasma was isolated from fresh buffy coats (collected onto the citrate-dextrose solution—ACD) purchased from the Regional Centre of Blood Donation and Blood Treatment in Lodz, Poland. In the isolation procedure, the buffy coats (60 mL units) were divided into volumes of 10 mL and centrifuged (4000 rpm/15 min) in 15 mL tubes. Next, 1 mL solutions of each amide 1–8 were prepared in distilled water at concentrations of 10, 25, and 50 mg/L. Then, 450 μL of plasma and 50 μL of each amide at the tested concentrations were placed into 1.5 mL vials. The vials were vortexed (Vortex Biosan V-1 plus), incubated at 37 °C on a thermoblock (Dry Block Thermostat Biosan TDB-120), and analyzed using a Kselmed K-3002 OPTIC coagulometer (Grudziądz, Poland), based on the manufacturer’s protocols (described below). The control sample was native blood plasma, untreated with any of the examined substances.
Fifty microliters of control plasma and plasma samples treated with the amides were transferred to measuring cuvettes and placed in the thermoblock module (37 °C) of the coagulometer (KSELMED, K-3002 Optic). Then, 50 μL of Dia-APTT reagent (DIAGON Kft. Hungary; cat. no. 72048) was added. The mixture was incubated for 180 s at 37 °C. Finally, 50 μL of reagent Dia-CaCl2 (DIAGON Kft. Hungary; cat. no. 41192) was added. Measurements were started immediately.

human blood plasma [2] = assay: Thrombin time (TT) clotting assay; type: biochemical
Protocol: as §1
Both 100 μL of control plasma and plasma samples treated with the amides were transferred to measuring cuvettes, which were placed in the thermoblock module (37 °C) of the coagulometer (KSELMED K-3002 Optic). Then, 100 μL of thrombin solution (4.5 U/mL, in 0.9% NaCl; Biomed, Lublin, Poland) was added to the cuvette. Measurements were started immediately.

[3] = Hemolysis assay (stability of erythrocytes); type: cell-based, human; conditions: male, human, heparinized whole blood diluted with saline (erythrocytes); for hemolysis at 45 min, 5 mg/L / hemolysis at 120 min, 5 mg/L / hemolysis at 240 min, 5 mg/L: c 5 mg/L; for hemolysis at 45 min, 50 mg/L / hemolysis at 120 min, 50 mg/L / hemolysis at 240 min, 50 mg/L: c 50 mg/L; for hemolysis at 45 min, 500 mg/L / hemolysis at 120 min, 500 mg/L / hemolysis at 240 min, 500 mg/L: c 500 mg/L
Protocol: Heparinized whole blood was used from a healthy volunteer. The whole blood (10 mL) was diluted with saline solution (90 mL). For each UV-Vis measurement, 2.5 mL of diluted blood was used. For each blood sample, 1 mL of a saline solution containing hydrochlorides 1–8 at concentrations of 5, 50, and 500 mg/L was added. As a control were used blood samples with the addition of 1% solution of DMSO in saline and 1% solution of SDS in saline. In all cases, the measurements were repeated twice for each concentration. […] The cells were centrifuged, and the absorbance of the supernatant, which contained plasma and lysed erythrocytes, was measured at 540 nm. The percentage of lysis was calculated from a standard curve of lysed erythrocytes treated with SDS [52].

human blood plasma [4] = assay: Clot formation and fibrinolysis (CFF) assay; type: biochemical; conditions: for Amax (maximum of fibrin clot absorbance at 360 nm) / VmaxC (of Fibrin Polymerization) / VmaxF (of Fibrin Clot Lysis): control plasma assumed as 100%, mean ± SD, n = 5–7
Description: The CFF assay enables analysis of both the blood plasma coagulation process and fibrinolysis efficiency. The thrombin enzyme in the reagent mixture initiates blood plasma fibrinogen polymerization, leading to an increase in absorbance in the sample until the maximal absorbance (Amax) is attained. The fibrinolytic activity of blood plasma is induced by the tissue-type plasminogen activator (t-PA). The activation of fibrinolysis in the tested samples leads to fibrin clot degradation and decreases the absorbance to the baseline.
Figure 11 An exemplary curve of blood plasma coagulation and clot lysis recorded during the clot formation and fibrinolysis (CFF) assay. The first step in the CFF test involves activation of the blood plasma coagulation cascade and fibrin clot formation (1). It is characterized by the maximal velocity of the fibrin polymerization parameter (VmaxC). The maximal absorbance (Amax) peak corresponds to the fibrin stabilization phase and is an indicator of fibrin clot thickness (2). The third step of the CFF assay covers the activation of fibrinolytic mechanisms and fibrin clot degradation (3) and is described by the maximal velocity of clot lysis (VmaxF).
Thrombin was purchased from BioMed (Lublin, Poland). A tissue-type plasminogen activator (Actilyse®) was purchased from Boehringer Ingelheim, Ingelheim am Rhein, Germany. Kinetic measurements were executed using a SpectrostarNano microplate spectrophotometer (BMG LabTech, Ortenberg, Germany).
Measurements were performed using a kinetic model, as described in our previous work. Briefly, blood plasma was preincubated with the examined substances (at final concentrations of 10, 25, and 50 mg/L) for 15 min at 37 °C. Then, 100 μL of blood plasma was added to microtiter plate wells, which was followed by 200 μL of the reagent mixture (0.75 U/mL thrombin, 225 ng/mL t-PA and 7.5 mM CaCl2) suspended in tris-buffered saline (0.05 M TBS, 0.9% NaCl; pH 7.4). Measurements of absorbance changes were started immediately and continued for 60 min at 37 °C, λ = 360 nm. The following parameters were used to determine the effects of the examined substances on the coagulation and fibrinolytic properties of the blood plasma: the maximal velocity of fibrinogen polymerization (VmaxC), which is an indicator of the plasma coagulation efficiency; the maximal absorbance (Amax), which is an indicator of the fibrin clot stabilization and its thickness; the maximal velocity of clot lysis (VmaxF), which is an indicator of blood plasma fibrinolytic activity.

human blood plasma [5] = assay: Prothrombin time (PT) clotting assay; type: biochemical
Protocol: as §1
Fifty microliters of control plasma and plasma samples treated with the amides were transferred to measuring cuvettes and placed in the thermoblock module (37 °C) of a coagulometer (KSELMED, K-3002 Optic). Then, 100 μL of Dia-PT reagent (DIAGON Kft. Hungary; cat. no. 81100) was added. Measurements were started immediately.

SMILES | melting point | aPTT Time [% of Control] (human blood plasma [1]; c 10 mg/L) | aPTT Time [% of Control] (human blood plasma [1]; c 25 mg/L) | aPTT Time [% of Control] (human blood plasma [1]; c 50 mg/L) | TT Time [% of Control] (human blood plasma [2]; c 10 mg/L) | TT Time [% of Control] (human blood plasma [2]; c 25 mg/L) | TT Time [% of Control] (human blood plasma [2]; c 50 mg/L) | hemolysis at 45 min, 5 mg/L [3] | hemolysis at 120 min, 5 mg/L [3] | hemolysis at 240 min, 5 mg/L [3] | hemolysis at 45 min, 50 mg/L [3] | hemolysis at 120 min, 50 mg/L [3] | hemolysis at 240 min, 50 mg/L [3] | hemolysis at 45 min, 500 mg/L [3] | hemolysis at 120 min, 500 mg/L [3] | hemolysis at 240 min, 500 mg/L [3] | Amax (maximum of fibrin clot absorbance at 360 nm) (human blood plasma [4]; 10 mg/L) | VmaxC (of Fibrin Polymerization) (human blood plasma [4]; 10 mg/L) | VmaxF (of Fibrin Clot Lysis) (human blood plasma [4]; 10 mg/L) | Amax (maximum of fibrin clot absorbance at 360 nm) (human blood plasma [4]; 25 mg/L) | further results
Cl.NCCCCCC(=O)NCc1ccc(C(=O)O)cc1 [Amide 2, 4-((6-Aminohexanamido)methyl)benzoic acid hydrochloride] | 199 to 201 °C | 98.5 ± 8.0 % of Control | 101.0 ± 13.1 % of Control | 101.9 ± 14.0 % of Control | 99.0 ± 1.8 % of Control | 98.9 ± 4.7 % of Control | 95.9 ± 6.8 % of Control | 0.41% | 0.21% | 0.65% | 0.11% | 0.74% | 0.3% | 1.03% | 0.21% | 0.43% | 105.29 ± 6.41% | 103.26 ± 3.98% | 75.81 ± 17.04 % | 110.74 ± 4.86 % | VmaxC (of Fibrin Polymerization) (human blood plasma [4]; 25 mg/L): 106.30 ± 3.60 %; VmaxF (of Fibrin Clot Lysis) (human blood plasma [4]; 25 mg/L): 79.60 ± 10.55 %; Amax (maximum of fibrin clot absorbance at 360 nm) (human blood plasma [4]; 50 mg/L): 110.77 ± 9.85 %; VmaxC (of Fibrin Polymerization) (human blood plasma [4]; 50 mg/L): 105.59 ± 3.74 %; VmaxF (of Fibrin Clot Lysis) (human blood plasma [4]; 50 mg/L): 85.69 ± 8.80 %; effect on fibrin polymerization (VmaxC) in words (human blood plasma [4]; tested at 10, 25, 50 mg/L): Mild pro-coagulant effects; PT Time [% of Control] (human blood plasma [5]; c 10 mg/L): 97.0 ± 4.8 % of Control; PT Time [% of Control] (human blood plasma [5]; c 25 mg/L): 96.1 ± 2.2 % of Control; PT Time [% of Control] (human blood plasma [5]; c 50 mg/L): 95.5 ± 2.5 % of Control; prothrombin time, effect versus control in words (human blood plasma [5]; two higher concentrations (25 and 50 mg/L)): significantly decreased
NCCCCCC(=O)NCC1CCC(C(=O)O)CC1 (stereo not drawn) (as salt: hydrochloride) [Amide 3, 6-((((1s,4s)-4-Carboxycyclohexyl)methyl)amino)-6-oxohexan-1-aminium chloride] | 195 to 197 °C |  |  |  |  |  |  |  |  |  |  |  |  |  |  |  |  |  |  |  | 
NCCCCCC(=O)NCC1CCC(C(=O)O)CC1 (stereo not drawn) [Amide 3, 6-((((1s,4s)-4-Carboxycyclohexyl)methyl)amino)-6-oxohexan-1-aminium chloride] |  | 94.8 ± 4.5 % of Control | 94.7 ± 4.1 % of Control | 96.3 ± 2.8 % of Control | 100.1 ± 2.6 % of Control | 100.8 ± 6.9 % of Control | 97.2 ± 4.3 % of Control | 0.44% | 0.74% | 0.41% | 0% | 0% | 0.26% | 0.47% | 0.65% | 0.23% | 107.21 ± 6.90 % | 105.61 ± 7.06% | 93.23 ± 16.83% | 104.49 ± 9.80% | aPTT, effect versus control in words (human blood plasma [1]; tested at 10, 25, 50 mg/L): significantly decreased; VmaxC (of Fibrin Polymerization) (human blood plasma [4]; 25 mg/L): 103.88 ± 9.73%; VmaxF (of Fibrin Clot Lysis) (human blood plasma [4]; 25 mg/L): 97.05 ± 24.39%; Amax (maximum of fibrin clot absorbance at 360 nm) (human blood plasma [4]; 50 mg/L): 112.98 ± 8.40 %; VmaxC (of Fibrin Polymerization) (human blood plasma [4]; 50 mg/L): 109.78 ± 6.46 %; VmaxF (of Fibrin Clot Lysis) (human blood plasma [4]; 50 mg/L): 102.82 ± 20.01%; PT Time [% of Control] (human blood plasma [5]; c 10 mg/L): 94.9 ± 2.2 % of Control; PT Time [% of Control] (human blood plasma [5]; c 25 mg/L): 95.2 ± 3.0 % of Control; PT Time [% of Control] (human blood plasma [5]; c 50 mg/L): 97.0 ± 3.6 % of Control; prothrombin time, effect versus control in words (human blood plasma [5]; two lower concentrations (10 and 25 mg/L)): decreased

Further lines, with some results ahead:

melting point | SMILES | aPTT Time [% of Control] (human blood plasma [1]; c 10 mg/L) | aPTT Time [% of Control] (human blood plasma [1]; c 25 mg/L) | aPTT Time [% of Control] (human blood plasma [1]; c 50 mg/L) | TT Time [% of Control] (human blood plasma [2]; c 10 mg/L) | TT Time [% of Control] (human blood plasma [2]; c 25 mg/L) | TT Time [% of Control] (human blood plasma [2]; c 50 mg/L) | hemolysis at 45 min, 5 mg/L [3] | hemolysis at 120 min, 5 mg/L [3] | hemolysis at 240 min, 5 mg/L [3] | hemolysis at 45 min, 50 mg/L [3] | hemolysis at 120 min, 50 mg/L [3] | hemolysis at 240 min, 50 mg/L [3] | hemolysis at 45 min, 500 mg/L [3] | hemolysis at 120 min, 500 mg/L [3] | hemolysis at 240 min, 500 mg/L [3] | Amax (maximum of fibrin clot absorbance at 360 nm) (human blood plasma [4]; 10 mg/L) | VmaxC (of Fibrin Polymerization) (human blood plasma [4]; 10 mg/L) | VmaxF (of Fibrin Clot Lysis) (human blood plasma [4]; 10 mg/L) | Amax (maximum of fibrin clot absorbance at 360 nm) (human blood plasma [4]; 25 mg/L) | further results
235 to 238 °C | Cl.NCC(=O)NCc1ccc(C(=O)O)cc1 [Amide 6, 4-((2-Aminoacetamido)methyl)benzoic acid hydrochloride] | 96.1 ± 4.2 % of Control | 97.0 ± 3.5 % of Control | 98.3 ± 3.6 % of Control | 92.5 ± 3.0 % of Control | 92.3 ± 2.5 % of Control | 92.8 ± 4.2 % of Control | 0.38% | 0.56% | 0.19% | 0% | 0.11% | 0.2% | 0.41% | 0.68% | 0.31% | 105.45 ± 5.46% | 104.68 ± 3.05 % | 98.41 ± 14.71% | 102.41 ± 5.56% | TT, effect versus control in words (human blood plasma [2]; all used concentrations (10, 25, 50 mg/L)): shorter TT than the control sample; VmaxC (of Fibrin Polymerization) (human blood plasma [4]; 25 mg/L): 103.10 ± 6.82%; VmaxF (of Fibrin Clot Lysis) (human blood plasma [4]; 25 mg/L): 100.06 ± 21.96%; Amax (maximum of fibrin clot absorbance at 360 nm) (human blood plasma [4]; 50 mg/L): 102.15 ± 2.46%; VmaxC (of Fibrin Polymerization) (human blood plasma [4]; 50 mg/L): 101.11 ± 4.77%; VmaxF (of Fibrin Clot Lysis) (human blood plasma [4]; 50 mg/L): 91.08 ± 15.49%; PT Time [% of Control] (human blood plasma [5]; c 10 mg/L): 96.1 ± 4.4 % of Control; PT Time [% of Control] (human blood plasma [5]; c 25 mg/L): 95.8 ± 4.3 % of Control; PT Time [% of Control] (human blood plasma [5]; c 50 mg/L): 93.5 ± 7.1 % of Control
221 to 224 °C | NCC(=O)NCC1CCC(C(=O)O)CC1 (stereo not drawn) (as salt: hydrochloride) [Amide 7, 2-((((1s,4s)-4-Carboxycyclohexyl)methyl)amino)-2-oxoethanaminium chloride] |  |  |  |  |  |  |  |  |  |  |  |  |  |  |  |  |  |  |  | 
